Test results as given in BigSolDB 2.1.

Question: For `CNc1nc(C)nc(OC)n1`, which solubility (mole fraction) (in DMF, 278.15 K) is on record?
Answer: The solubility (mole fraction) was 0.199.

Question: What about the solubility (mole fraction) (in DMF, 283.15 K) of the same molecule?
Answer: Its solubility (mole fraction) is 0.221.

Question: And the solubility (mole fraction) (in DMF, 288.15 K)?
Answer: Its solubility (mole fraction) is 0.245.

Question: And the solubility (mole fraction) (in DMF, 293.15 K)?
Answer: The solubility (mole fraction) was 0.269.

Question: And the solubility (mole fraction) (in DMF, 298.15 K)?
Answer: The solubility (mole fraction) was 0.298.

Question: What about the solubility (mole fraction) (in DMF, 303.15 K) of the same molecule?
Answer: The solubility (mole fraction) was 0.324.

Question: What about the solubility (mole fraction) (in DMF, 308.15 K) of the same molecule?
Answer: Its solubility (mole fraction) is 0.357.

Question: And the solubility (mole fraction) (in DMF, 313.15 K)?
Answer: The solubility (mole fraction) was 0.386.

Question: What about the solubility (mole fraction) (in DMF, 318.15 K) of the same molecule?
Answer: The solubility (mole fraction) was 0.416.

Question: And the solubility (mole fraction) (in DMF, 323.15 K)?
Answer: Its solubility (mole fraction) is 0.456.

Question: What about the solubility (mole fraction) (in ethanol, 278.15 K) of the same molecule?
Answer: The solubility (mole fraction) was 0.0496.

Question: And the solubility (mole fraction) (in ethanol, 283.15 K)?
Answer: Its solubility (mole fraction) is 0.057.

Question: And the solubility (mole fraction) (in ethanol, 288.15 K)?
Answer: Its solubility (mole fraction) is 0.0655.

Question: What about the solubility (mole fraction) (in ethanol, 293.15 K) of the same molecule?
Answer: Its solubility (mole fraction) is 0.0737.

Question: What about the solubility (mole fraction) (in ethanol, 298.15 K) of the same molecule?
Answer: Its solubility (mole fraction) is 0.0818.

Question: And the solubility (mole fraction) (in ethanol, 303.15 K)?
Answer: Its solubility (mole fraction) is 0.0914.

Question: And the solubility (mole fraction) (in ethanol, 308.15 K)?
Answer: The solubility (mole fraction) was 0.101.

Question: What about the solubility (mole fraction) (in ethanol, 313.15 K) of the same molecule?
Answer: The solubility (mole fraction) was 0.111.

Question: And the solubility (mole fraction) (in ethanol, 318.15 K)?
Answer: Its solubility (mole fraction) is 0.123.

Question: What about the solubility (mole fraction) (in ethanol, 323.15 K) of the same molecule?
Answer: The solubility (mole fraction) was 0.136.

Question: What about the solubility (mole fraction) (in ethylene glycol, 278.15 K) of the same molecule?
Answer: Its solubility (mole fraction) is 0.0208.

Question: What about the solubility (mole fraction) (in ethylene glycol, 283.15 K) of the same molecule?
Answer: The solubility (mole fraction) was 0.0236.

Question: And the solubility (mole fraction) (in ethylene glycol, 288.15 K)?
Answer: Its solubility (mole fraction) is 0.0273.

Question: And the solubility (mole fraction) (in ethylene glycol, 293.15 K)?
Answer: The solubility (mole fraction) was 0.0309.

Question: What about the solubility (mole fraction) (in ethylene glycol, 298.15 K) of the same molecule?
Answer: The solubility (mole fraction) was 0.0349.

Question: And the solubility (mole fraction) (in ethylene glycol, 303.15 K)?
Answer: Its solubility (mole fraction) is 0.039.

Question: What about the solubility (mole fraction) (in ethylene glycol, 308.15 K) of the same molecule?
Answer: The solubility (mole fraction) was 0.0437.

Question: And the solubility (mole fraction) (in ethylene glycol, 313.15 K)?
Answer: The solubility (mole fraction) was 0.0483.

Question: And the solubility (mole fraction) (in ethylene glycol, 318.15 K)?
Answer: Its solubility (mole fraction) is 0.0534.

Question: And the solubility (mole fraction) (in ethylene glycol, 323.15 K)?
Answer: Its solubility (mole fraction) is 0.0597.

Question: What about the solubility (mole fraction) (in methanol, 278.15 K) of the same molecule?
Answer: Its solubility (mole fraction) is 0.0666.

Question: What about the solubility (mole fraction) (in methanol, 283.15 K) of the same molecule?
Answer: Its solubility (mole fraction) is 0.0766.

Question: And the solubility (mole fraction) (in methanol, 288.15 K)?
Answer: Its solubility (mole fraction) is 0.0874.

Question: And the solubility (mole fraction) (in methanol, 293.15 K)?
Answer: The solubility (mole fraction) was 0.0983.

Question: And the solubility (mole fraction) (in methanol, 298.15 K)?
Answer: The solubility (mole fraction) was 0.11.

Question: And the solubility (mole fraction) (in methanol, 303.15 K)?
Answer: Its solubility (mole fraction) is 0.123.

Question: What about the solubility (mole fraction) (in methanol, 308.15 K) of the same molecule?
Answer: Its solubility (mole fraction) is 0.138.

Question: And the solubility (mole fraction) (in methanol, 313.15 K)?
Answer: Its solubility (mole fraction) is 0.152.

Question: And the solubility (mole fraction) (in methanol, 318.15 K)?
Answer: The solubility (mole fraction) was 0.168.

Question: What about the solubility (mole fraction) (in methanol, 323.15 K) of the same molecule?
Answer: The solubility (mole fraction) was 0.185.

Question: And the solubility (mole fraction) (in water, 278.15 K)?
Answer: The solubility (mole fraction) was 2.58e-06.

Question: And the solubility (mole fraction) (in water, 283.15 K)?
Answer: The solubility (mole fraction) was 3.05e-06.

Question: What about the solubility (mole fraction) (in water, 288.15 K) of the same molecule?
Answer: Its solubility (mole fraction) is 3.53e-06.

Question: What about the solubility (mole fraction) (in water, 293.15 K) of the same molecule?
Answer: The solubility (mole fraction) was 4.12e-06.

Question: And the solubility (mole fraction) (in water, 298.15 K)?
Answer: The solubility (mole fraction) was 4.73e-06.

Question: And the solubility (mole fraction) (in water, 303.15 K)?
Answer: Its solubility (mole fraction) is 5.33e-06.

Question: And the solubility (mole fraction) (in water, 308.15 K)?
Answer: The solubility (mole fraction) was 5.99e-06.

Question: And the solubility (mole fraction) (in water, 313.15 K)?
Answer: The solubility (mole fraction) was 6.71e-06.

Question: What about the solubility (mole fraction) (in water, 318.15 K) of the same molecule?
Answer: Its solubility (mole fraction) is 7.57e-06.

Question: And the solubility (mole fraction) (in water, 323.15 K)?
Answer: Its solubility (mole fraction) is 8.49e-06.
